Where “and” joins values, the source holds several entries; their conditions need not be identical. Equal entries are not always repeated. Bridge positions count the residues as written; N and C are the ends. Ends that are not written are not given here.
What was measured:
AST-CRd (TR71151) = experiment: Aequorin luminescence receptor assay, CHO-K1-Aeq-Gα16 cells transiently expressing AST-CRd; assay type: cell-based, Carcinus maenas; conditions: for Activation of AST-CRd at saturating doses: 10, 1 µmol l^−1 peptide, quadruplicate
Description: The transcriptome of neural tissue of C. maenas, which has been previously assembled ([Oliphant et al., 2018]), identified four putative AST-C receptor candidates: TR71151a-d ([Oliphant et al., 2018]). These were chemically synthesized with a modified 5′ Kozak sequence (GAATTCGCCACC) and cloned in frame into a pcDNA3.1(+) plasmid vector (Genscript, Piscataway, NJ, USA). Separate aliquots of OneShot TOP10® E. coli cells (Invitrogen, Paisley, UK) were transformed with the plasmids and grown on LB plates containing 100 µg ml^−1 ampicillin overnight at 37°C. Positive clones were cultured overnight in LB broth with 100 µg ml^−1 ampicillin at 37°C and plasmids extracted using a Qiagen Plasmid Midiprep kit according to the manufacturer's instructions. Purified plasmids were re-sequenced (MWG Eurofins, Ebersberg, Germany) and analyzed using Geneious 9.1.8 ([Kearse et al., 2012]).
Chinese hamster ovary (CHO-K1) cells containing stably expressed apoaequorin (Perkin Elmer, Boston, MA) and either Gα16 or Gq subunit (control cells) were cultured in Dulbecco's Modified Eagle Medium (DMEM) F-12 Nutrient Mixture Glutamax (Gibco®) supplemented with 10% fetal bovine serum (Gibco®). Cells were maintained in vented T75 flasks at 37°C in 5% CO2. Cells grown in a monolayer to approximately 60% confluency were transfected with pcDNA 3.1 constructs using FugeneHD® (Promega) according to the manufacturer's recommendations. Transfection medium was prepared by combining 800 µl Opti-MEM® (Gibco) with 10 µg vector and the cells further incubated overnight. Cells were detached from the culture flask by incubating for 10 min in 5 ml 0.2% EDTA in PBS, washed in 10 ml clear DMEM–F-12 containing L-glutamine and 15 mmol l^−1 HEPES, centrifuged (for 5 min at 260 g) and resuspended at a concentration of 5×10^6 cells ml^−1 in 0.2 µm filtered BSA medium (DMEM–F-12 containing L-glutamine, 15 mmol l^−1 HEPES and 0.1% BSA). Coelenterazine h (Invitrogen, Paisley, UK) was added to give a concentration of 5 µmol l^−1, and the cells incubated in the dark at room temperature with gentle rocking. Before the assay, cells were further diluted (10-fold) and incubated for 60 min before use. Dried aliquots of peptides were reconstituted in BSA medium, and 50 µl added in quadruplicate to a white 96-well plate (Optiplate®, Perkin Elmer). Cell suspensions were gently stirred and injected (50 µl per well) using a Mithras LB 940 microplate reader (Berthold Technologies, Bad Wildbad, Germany) and light emission (Ca^2+ response recorded for 30 s). Cells were then lysed by injection of 50 µl per well 0.3% Triton-X in BSA medium, and light emission recorded for a further 10 s to measure total Ca^2+ response. BSA medium was used for blank measurements (six replicates per plate) and transfection with empty vectors was used for negative controls. Data were analyzed using Mikrowin 2010 v5 (Mikrotek Laborsysteme, Overath, Germany) and SigmaPlot v15 (Systat Software, Grafiti, Slough, UK).

AST-CR(d) = experiment: Aequorin luminescence receptor assay, AST-CR(d) construct in control cells expressing a Gq subunit; assay type: cell-based, Carcinus maenas; conditions: CHO-K1-Aeq control cells expressing a Gq subunit, transfected with AST-CR(d) construct
Protocol: Chinese hamster ovary (CHO-K1) cells containing stably expressed apoaequorin (Perkin Elmer, Boston, MA) and either Gα16 or Gq subunit (control cells) were cultured in Dulbecco's Modified Eagle Medium (DMEM) F-12 Nutrient Mixture Glutamax (Gibco®) supplemented with 10% fetal bovine serum (Gibco®). Cells were maintained in vented T75 flasks at 37°C in 5% CO2. Cells grown in a monolayer to approximately 60% confluency were transfected with pcDNA 3.1 constructs using FugeneHD® (Promega) according to the manufacturer's recommendations. Transfection medium was prepared by combining 800 µl Opti-MEM® (Gibco) with 10 µg vector and the cells further incubated overnight. […] Cell suspensions were gently stirred and injected (50 µl per well) using a Mithras LB 940 microplate reader (Berthold Technologies, Bad Wildbad, Germany) and light emission (Ca^2+ response recorded for 30 s). Cells were then lysed by injection of 50 µl per well 0.3% Triton-X in BSA medium, and light emission recorded for a further 10 s to measure total Ca^2+ response. […] Data were analyzed using Mikrowin 2010 v5 (Mikrotek Laborsysteme, Overath, Germany) and SigmaPlot v15 (Systat Software, Grafiti, Slough, UK).

[1] = test system: semi-isolated heart preparations; experiment: Semi-isolated heart preparation bioassay; set-up: species or system Carcinus maenas; conditions: 10^−6 mol l^−1 in saline, 20°C, recorded about 2 min; four preparations
Description: To determine possible myotropic and/or myoinhbitory activity of AST-C, AST-CC and AST-CCC, inter-molt crabs (∼65 mm carapace width) were ice-anaesthetized and rapidly decerebrated before removing all limbs and the dorsal carapace to expose the heart and pericardial cavity. The preparation was then fitted into a bowl lined with tissue, to provide a stable saline-flooded environment. The heart was connected to a force transducer (MLT0210/A) via a micro-fishing hook (size 28) and fine nylon (0.08 mm) monofilament. Connection to a PC with Chart 4.0 software was via a Bridge Pod (ML301) and Powerlab 4/20 (AD Instruments, Castle Hill, NSW, Australia). Transducer gain was set at maximum sensitivity (200 μV). Heart preparations were initially perfused with Carcinus physiological saline ([Saver et al., 1999]) at room temperature (20°C). Once a stable output was achieved, hearts were then perfused by sequentially adding approximately 2 ml saline containing AST-C, AST-CC and AST-CCC (GenScript Biotech, Piscataway, NJ, USA), and finally adding CCAP as a positive control (all peptides were at a concentration of 10^−6 mol l^−1 in saline). Each peptide addition was followed by extensive washout with saline, recording heart rate and beat amplitude for approximately 2 min after application of each peptide.

AST-C receptor = conditions: cited from earlier work; for EC50: Apis mellifera single AST-C receptor, ref Urlacher et al., 2016, read-out: EC50, receptor activation; for ED50, receptor activation: Tribolium castaneum AST-C receptor, ref Audsley et al., 2013
Description: Thus, the cognate receptor for AST-CCC remains elusive. Despite the well-known similarity in receptor sequences between AST-CR and the somatostatin receptor ([Krienkamp et al., 2002]; [Mayoral et al., 2010]; [Jékely, 2013]; [Verl ...

heart = conditions: H. americanus; often seen, the converse in some individuals; ref Dickinson et al., 2018; cited from earlier work

Row | Substance | Activation of AST-CRd at saturating doses (AST-CRd (TR71151)) | ED50, luminescence response (AST-CRd (TR71151); CHO-K1-Aeq-Gα16 cells transiently expressing AST-CRd, assayed in quadruplicate, two independent experiments, approximate values) | Luminescent response in control cells (AST-CR(d)) | Effect on heartbeat amplitude [1] | Effect on heartbeat frequency (heart rate) [1] | EC50 (AST-C receptor) | ED50, receptor activation (AST-C receptor) | Effect on heart rate (heart)
1 | GNGDGRLYWRCYFNAVSCF (disulfide 11-18 (inferred)) [AST-CC, C. maenas AST-C family neuropeptide; synthetic (GenScript)] | equally active | 2 nmol/L and 2 to 6 nmol/L | no luminescent response | entirely unaffected | entirely unaffected | 15.4 nM | 105.7 nmol/L | decrease in amplitude and frequency of heart rate
2 | pQIRYHQCYFNPISCF (disulfide) [AST-C, allatostatin-C, C. maenas AST-C family neuropeptide with C-terminal PISCF motif; synthetic (GenScript)] | equally active | – | no luminescent response | entirely unaffected | entirely unaffected | 14.6 nM | 25 nmol/L | decrease in amplitude and frequency of heart rate
